US20230108934A1, “Stabilizing Camptothecin Pharmaceutical Compositions” (Ipsen Biopharm Ltd., priority 2015, published 2023)
Like-named read-outs stand apart in the source and are kept apart here.

How the values were obtained:
[1] = Solubility determination of irinotecan sucrosofate in water; assay type: physicochemical; conditions: deionized water, 4-6° C., 22 hours
Description: An amount of 1.64 g of irinotecan hydrochloride trihydrate was added to 160 mL of water acidified with 0.008 mL of 1 N HCl, and heated on a 65° C. water bath with stirring until the drug was dissolved. Five mL of 0.46 M (based on sulfate concentration) triethylammonium sucrosofate were added with intensive stirring, and stirred for five minutes more. […] The precipitate was separated by centrifugation, and the supernatant solution was discarded. The pellet was resuspended in five volumes of deionized water, and precipitated by centrifugation; this washing step was repeated two more times until the pH of the suspension was about 5.8. […] An aliquot of the product was solubilized in 1 N HCl and analyzed for irinotecan (by spectrophotometry at 365 nm in 70% aqueous isopropanol-0.1 N HCl) and for sulfate after hydrolysis in a diluted (1:4) perchloric acid using a barium sulfate turbidimetric assay. […] The samples were incubated with agitation at 4-6° C. for 22 hours, the solid material was removed by centrifugation for 10 min at 14000 g, and the supernatant fluid was analyzed for irinotecan by spectrophotometry.

[2] = cited from earlier work

CCc1c2c(nc3ccc(OC(=O)N4CCC(N5CCCCC5)CC4)cc13)-c1cc3c(c(=O)n1C2)COC(=O)[C@]3(O)CC [irinotecan sucrosofate]
concentration of irinotecan in solution ([1]; final drug salt concentration 0.93 mg/mL): 58.9±0.90 micro-g/mL
concentration of irinotecan in solution ([1]; final drug salt concentration 1.85 mg/mL): 63.2±0.6 micro-g/mL
concentration of irinotecan in solution ([1]; final drug salt concentration 3.71 mg/mL): 63.4±1.3 micro-g/mL

CCc1c2c(nc3ccc(OC(=O)N4CCC(N5CCCCC5)CC4)cc13)-c1cc3c(c(=O)n1C2)COC(=O)[C@]3(O)CC [irinotecan]
irinotecan in the more active lactone form ([2]; pH 6.0): about 85%
irinotecan in the more active lactone form ([2]; pH 6.5): about 65%
irinotecan in the more active lactone form ([2]; pH 7.5): about 15%
